Data reported in ChEMBL document CHEMBL1201861, “Genomics of Drug Sensitity in Cancer screening data, Wellcome Trust Sanger Institute”.
Where “and” joins values, the source holds several entries; their conditions need not be identical. Equal entries are not always repeated. Where a SMILES comes first, the peptide text is derived from it. The star is where a group is joined. Cbz = O=C(OCc1ccccc1)*

Columns and labels:
Experiment in all cases: cells
D283 Med = assay type: functional, cell-based, Homo sapiens
Description: SANGER: Inhibition of human D-283MED cell growth in a cell viability assay.

MPP-89 = assay type: functional, cell-based, Homo sapiens
Description: SANGER: Inhibition of human MPP-89 cell growth in a cell viability assay.

KNS-81-FD = assay type: functional, cell-based, Homo sapiens
Description: SANGER: Inhibition of human KNS-81-FD cell growth in a cell viability assay.

MFM-223 = assay type: functional, cell-based, Homo sapiens
Description: SANGER: Inhibition of human MFM-223 cell growth in a cell viability assay.

BB49-HNC = assay type: functional, cell-based, Homo sapiens
Description: SANGER: Inhibition of human BB49-HNC cell growth in a cell viability assay.

A4-Fuk = assay type: functional, cell-based, Homo sapiens
Description: SANGER: Inhibition of human A4-Fuk cell growth in a cell viability assay.

VA-ES-BJ = assay type: functional, cell-based, Homo sapiens
Description: SANGER: Inhibition of human VA-ES-BJ cell growth in a cell viability assay.

TE-5 = assay type: functional, cell-based, Homo sapiens
Description: SANGER: Inhibition of human TE-5 cell growth in a cell viability assay.

IA-LM = assay type: functional, cell-based; conditions: Homo sapiens
Description: SANGER: Inhibition of human IA-LM cell growth in a cell viability assay.

RXF 393 = assay type: functional, cell-based, Homo sapiens
Description: SANGER: Inhibition of human RXF393 cell growth in a cell viability assay.

EKVX = assay type: functional, cell-based, Homo sapiens
Description: SANGER: Inhibition of human EKVX cell growth in a cell viability assay.

A101D = assay type: functional, cell-based, Homo sapiens
Description: SANGER: Inhibition of human A101D cell growth in a cell viability assay.

EW-11 = assay type: functional, cell-based, Homo sapiens
Description: SANGER: Inhibition of human EW-11 cell growth in a cell viability assay.

SK-N-DZ = assay type: functional, cell-based, Homo sapiens; conditions: read-out: IC50
Description: SANGER: Inhibition of human SK-N-DZ cell growth in a cell viability assay.

MLMA = assay type: functional, cell-based, Homo sapiens
Description: SANGER: Inhibition of human MLMA cell growth in a cell viability assay.

GR-ST = assay type: functional, cell-based, Homo sapiens
Description: SANGER: Inhibition of human GR-ST cell growth in a cell viability assay.

LB831-BLC = assay type: functional, cell-based, Homo sapiens
Description: SANGER: Inhibition of human LB831-BLC cell growth in a cell viability assay.

AM-38 = assay type: functional, cell-based, Homo sapiens
Description: SANGER: Inhibition of human AM-38 cell growth in a cell viability assay.

ETK-1 = assay type: functional, cell-based, Homo sapiens
Description: SANGER: Inhibition of human ETK-1 cell growth in a cell viability assay.

NCI-H1304 = assay type: functional, cell-based, Homo sapiens
Description: SANGER: Inhibition of human NCI-H1304 cell growth in a cell viability assay.

MS-1 = assay type: functional, cell-based, Homo sapiens
Description: SANGER: Inhibition of human MS-1 cell growth in a cell viability assay.

NCI-H446 = assay type: functional, cell-based, Homo sapiens
Description: SANGER: Inhibition of human NCI-H446 cell growth in a cell viability assay.

TGBC1TKB = assay type: functional, cell-based, Homo sapiens
Description: SANGER: Inhibition of human TGBC1TKB cell growth in a cell viability assay.

SF-268 = assay type: functional, cell-based, Homo sapiens
Description: SANGER: Inhibition of human SF268 cell growth in a cell viability assay.

P30-OHK = assay type: functional, cell-based, Homo sapiens
Description: SANGER: Inhibition of human P30-OHK cell growth in a cell viability assay.

NCI-H1770 = assay type: functional, cell-based, Homo sapiens
Description: SANGER: Inhibition of human NCI-H1770 cell growth in a cell viability assay.

LS-1034 = assay type: functional, cell-based, Homo sapiens
Description: SANGER: Inhibition of human LS-1034 cell growth in a cell viability assay.

EW-18 = assay type: functional, cell-based, Homo sapiens; conditions: read-out: IC50
Description: SANGER: Inhibition of human EW-18 cell growth in a cell viability assay.

MHH-PREB-1 = assay type: functional, cell-based, Homo sapiens
Description: SANGER: Inhibition of human MHH-PREB-1 cell growth in a cell viability assay.

Calu-6 = assay type: functional, cell-based, Homo sapiens
Description: SANGER: Inhibition of human Calu-6 cell growth in a cell viability assay.

LB1047-RCC = assay type: functional, cell-based, Homo sapiens
Description: SANGER: Inhibition of human LB1047-RCC cell growth in a cell viability assay.

SNB-75 = assay type: functional, cell-based, Homo sapiens
Description: SANGER: Inhibition of human SNB75 cell growth in a cell viability assay.

D-502MG = assay type: functional, cell-based, Homo sapiens
Description: SANGER: Inhibition of human D-502MG cell growth in a cell viability assay.

COLO-668 = assay type: functional, cell-based, Homo sapiens
Description: SANGER: Inhibition of human COLO-668 cell growth in a cell viability assay.

KY821 = assay type: functional, cell-based, Homo sapiens
Description: SANGER: Inhibition of human KY821 cell growth in a cell viability assay.

KM12 = assay type: functional, cell-based, Homo sapiens
Description: SANGER: Inhibition of human KM12 cell growth in a cell viability assay.

TE-6 = assay type: functional, cell-based, Homo sapiens
Description: SANGER: Inhibition of human TE-6 cell growth in a cell viability assay.

LS-411N = assay type: functional, cell-based, Homo sapiens
ACN = assay type: functional, cell-based, Homo sapiens
Description: SANGER: Inhibition of human ACN cell growth in a cell viability assay.

Becker = assay type: functional, cell-based, Homo sapiens
Description: SANGER: Inhibition of human Becker cell growth in a cell viability assay.

CTV-1 = assay type: functional, cell-based, Homo sapiens
Description: SANGER: Inhibition of human CTV-1 cell growth in a cell viability assay.

NCI-H526 = assay type: functional, cell-based, Homo sapiens
Description: SANGER: Inhibition of human NCI-H526 cell growth in a cell viability assay.

COLO-824 = assay type: functional, cell-based, Homo sapiens
Description: SANGER: Inhibition of human COLO-824 cell growth in a cell viability assay.

HCE-T = assay type: functional, cell-based, Homo sapiens
Description: SANGER: Inhibition of human HCE-T cell growth in a cell viability assay.

KARPAS-45 = assay type: functional, cell-based, Homo sapiens
Description: SANGER: Inhibition of human KARPAS-45 cell growth in a cell viability assay.

COR-L88 = assay type: functional, cell-based, Homo sapiens
Description: SANGER: Inhibition of human COR-L88 cell growth in a cell viability assay.

D-247MG = assay type: functional, cell-based; conditions: Homo sapiens
Description: SANGER: Inhibition of human D-247MG cell growth in a cell viability assay.

## CC(C)C[C@@H](C=O)NC(=O)[C@H](CC(C)C)NC(=O)[C@H](CC(C)C)NC(=O)OCc1ccccc1 [MG-132] (Cbz-Leu-Leu-Leu-aldehyde)
D283 Med; d283 med
  IC50: > 1000 nM
MPP-89; mpp-89
  IC50: > 1000 nM
KNS-81-FD; kns-81-fd
  IC50: 303 nM and > 1000 nM
MFM-223; mfm-223
  IC50: > 1000 nM
BB49-HNC; bb49-hnc
  IC50: 491 nM and > 1000 nM
A4-Fuk; a4-fuk
  IC50: > 1000 nM
VA-ES-BJ; va-es-bj
  IC50: 223 nM and > 1000 nM
TE-5; te-5
  IC50: 143 nM and > 1000 nM
IA-LM
  IC50: > 1000 nM
RXF 393; rxf 393
  IC50: 250 nM and > 1000 nM
EKVX; ekvx
  IC50: > 1000 nM
A101D; a101d
  IC50: 32.8 nM and 301 nM
EW-11; ew-11
  IC50: > 1000 nM
SK-N-DZ; sk-n-dz
  IC50: > 1000 nM
MLMA; mlma
  IC50: > 1000 nM
GR-ST; gr-st
  IC50: > 1000 nM
LB831-BLC; lb831-blc
  IC50: 193 nM and 476 nM
AM-38; am-38
  IC50: > 1000 nM
ETK-1; Homo sapiens, ETK-1
  IC50: > 1000 nM
ETK-1; etk-1
  IC50: > 1000 nM
NCI-H1304; Homo sapiens, NCI-H1304
  IC50: > 1000 nM
NCI-H1304; nci-h1304
  IC50: > 1000 nM
MS-1; Homo sapiens, MS-1
  IC50: > 1000 nM
MS-1; ms-1
  IC50: > 1000 nM
NCI-H446; Homo sapiens, NCI-H446
  IC50: > 1000 nM
NCI-H446; nci-h446
  IC50: > 1000 nM
TGBC1TKB; tgbc1tkb
  IC50: > 1000 nM and 686 nM
SF-268; sf-268
  IC50: 656 nM and > 1000 nM
P30-OHK; p30-ohk
  IC50: > 1000 nM
NCI-H1770; nci-h1770
  IC50: > 1000 nM
LS-1034; ls-1034
  IC50: > 1000 nM
EW-18; ew-18
  IC50: > 1000 nM
MHH-PREB-1; mhh-preb-1
  IC50: > 1000 nM
Calu-6; Homo sapiens, Calu-6
  IC50: > 1000 nM
Calu-6; calu-6
  IC50: > 1000 nM
LB1047-RCC; Homo sapiens, LB1047-RCC
  IC50: > 1000 nM
LB1047-RCC; lb1047-rcc
  IC50: > 1000 nM
SNB-75; snb-75
  IC50: > 1000 nM
D-502MG; d-502mg
  IC50: > 1000 nM
COLO-668; Homo sapiens, COLO-668
  IC50: > 1000 nM
COLO-668; colo-668
  IC50: > 1000 nM
KY821; ky821
  IC50: > 1000 nM
KM12; km12
  IC50: 855 nM and > 1000 nM
TE-6; te-6
  IC50: > 1000 nM
LS-411N; ls-411n
  IC50: > 1000 nM
ACN; acn
  IC50: 226 nM and > 1000 nM
Becker; becker
  IC50: 796 nM and > 1000 nM
CTV-1; ctv-1
  IC50: > 1000 nM
NCI-H526; nci-h526
  IC50: > 1000 nM
COLO-824; colo-824
  IC50: > 1000 nM
HCE-T; hce-t
  IC50: > 1000 nM
KARPAS-45; karpas-45
  IC50: > 1000 nM
COR-L88; cor-l88
  IC50: > 1000 nM

## CC(C)C[C@H](NC(=O)[C@H](Cc1ccccc1)NC(=O)c1cnccn1)B(O)O [BORTEZOMIB]
D283 Med; Homo sapiens, D283 Med
  IC50: > 20 nM
MPP-89; Homo sapiens, MPP-89
  IC50: 1.89 nM
KNS-81-FD; Homo sapiens, KNS-81-FD
  IC50: 2.48 nM
MFM-223; Homo sapiens, MFM-223
  IC50: 17.9 nM
BB49-HNC; Homo sapiens, BB49-HNC
  IC50: 0.652 nM
A4-Fuk; Homo sapiens, A4-Fuk
  IC50: 0.623 nM
VA-ES-BJ; Homo sapiens, VA-ES-BJ
  IC50: 1.09 nM
TE-5; Homo sapiens, TE-5
  IC50: 0.865 nM
RXF 393; Homo sapiens, RXF 393
  IC50: 0.914 nM
EKVX; Homo sapiens, EKVX
  IC50: 2.14 nM
A101D; Homo sapiens, A101D
  IC50: 0.225 nM
EW-11; Homo sapiens, EW-11
  IC50: > 20 nM
SK-N-DZ; Homo sapiens, SK-N-DZ
  IC50: 3.26 nM
MLMA; Homo sapiens, MLMA
  IC50: 8.85 nM
GR-ST; Homo sapiens, GR-ST
  IC50: > 20 nM
LB831-BLC; Homo sapiens, LB831-BLC
  IC50: 0.641 nM
AM-38; Homo sapiens, AM-38
  IC50: > 20 nM
ETK-1; Homo sapiens, ETK-1
  IC50: 2.84 nM
NCI-H1304; Homo sapiens, NCI-H1304
  IC50: > 20 nM
MS-1; Homo sapiens, MS-1
  IC50: > 20 nM
NCI-H446; Homo sapiens, NCI-H446
  IC50: > 20 nM
TGBC1TKB; Homo sapiens, TGBC1TKB
  IC50: 1.71 nM
SF-268; Homo sapiens, SF-268
  IC50: 0.923 nM
P30-OHK; Homo sapiens, P30-OHK
  IC50: > 20 nM
D-247MG
  IC50: 0.413 nM
NCI-H1770; Homo sapiens, NCI-H1770
  IC50: > 20 nM
LS-1034; Homo sapiens, LS-1034
  IC50: > 20 nM
EW-18; Homo sapiens, EW-18
  IC50: 18 nM
MHH-PREB-1; Homo sapiens, MHH-PREB-1
  IC50: 4.86 nM
Calu-6; Homo sapiens, Calu-6
  IC50: 1.29 nM
LB1047-RCC; Homo sapiens, LB1047-RCC
  IC50: 2.57 nM
SNB-75; Homo sapiens, SNB-75
  IC50: 0.912 nM
D-502MG; Homo sapiens, D-502MG
  IC50: 6.37 nM
COLO-668; Homo sapiens, COLO-668
  IC50: > 20 nM
KY821; Homo sapiens, KY821
  IC50: > 20 nM
KM12; Homo sapiens, KM12
  IC50: 1.27 nM
TE-6; Homo sapiens, TE-6
  IC50: > 20 nM
LS-411N; Homo sapiens, LS-411N
  IC50: 1.53 nM
ACN; Homo sapiens, ACN
  IC50: 0.417 nM
Becker; Homo sapiens, Becker
  IC50: 1.83 nM
CTV-1; Homo sapiens, CTV-1
  IC50: 2.8 nM
NCI-H526; Homo sapiens, NCI-H526
  IC50: > 20 nM
COLO-824; Homo sapiens, COLO-824
  IC50: > 20 nM
HCE-T; Homo sapiens, HCE-T
  IC50: 0.439 nM
KARPAS-45; Homo sapiens, KARPAS-45
  IC50: 3.54 nM
COR-L88; Homo sapiens, COR-L88
  IC50: 3.47 nM
